Results from publication PMC11865978, “Cellular Activity of CQWW Nullomer-Derived Peptides” (ACS Omega, 2025).
Non-standard residues stand in square brackets, D forms with d. Residues, ends and D or L forms follow the SMILES beside them. No end group written: not given here.

What was measured:
[1] = test system: triple-negative breast cancer mouse model; conditions: cited from earlier work
Text: (§1) Closely related to nullomer peptides, rarely observed amino acid stretches have also been studied by Capone et al., who assert that the minimal sufficient antigenic determinants of a protein could be encoded in just five rarely seen amino acids.[20] Complementing this, Patel et al. noted that these rare sequences could be used to enhance antigen-specific immune responses when dosed alongside adjuvant vaccines.[21] It was also noted by Koulouras et al. that human viruses rarely share human nullomers, facilitating host mimicry and immune evasion,[22] an interesting example of this being highligh ...

NCI-60 panel = conditions: 60 cell lines from human cancers of nine organs; cited from earlier work
Text: as §1

[2] = test system: normal cell lines and cancer cell lines; conditions: cited from earlier work
Text: as §1

GCGR-E31 = assay type: cell-based, human; conditions: 72 h
Protocol: (§2) Peptides were tested in an automated image-based high-content[42] cell painting[43],[44] assay that was originally developed to explore the mechanism of action of pharmacological and genetic perturbations within cells,[45] as well as a live cell imaging assay against six patient-derived glioblastoma cell lines (GCGR-E13, GCGR-E28, GCGR-E21, GCGR-E57, GCGR-E31, and GCGR-E34), covering classical, mesenchymal, and proneural subtypes, respectively (see Methods and Figure 1B–D), along with a healthy human fetal neuronal stem cell line (GCGR-NS9FB_B).
(§3) Cell survival was quantified by nuclei counts from the Hoechst dye-stained nuclei and IC50 values calculated along with 95% confidence intervals (Figure 1B; see Table S2 for full details). […]
(§4) High Content Phenotypic Screening assays
(§5) Cell lines (glioma stem cell lines and normal foetal neural stem cells) were seeded on laminin (10 µg/mL) coated 384-well plates (Greiner Bio-One, 781091) at 1,000 cells/well and incubated overnight at 37 °C and 5% CO2. Aqueous peptide solutions (10 mM) were further diluted to 1 mM in water containing 10 % glycerol and 0.01 % TX-100. Cells were dosed using a D300 digital dispenser (Tecan) by 10-point dose response (30 µM – 1 µM) in triplicate and with aqueous glycerol/TX-100 as control. The cells were placed in an IncuCyte live cell imager (Essen BioScience) and imaged every three hours for 72 hours. Prior to fixation, the plates were removed from the IncuCyte and stained with Mitrotracker DeepRed (Invitrogen, M22426, 300 nM, 30 minutes). Cells were then fixed using 4 % formaldehyde and permeabilized with 0.1 % TX-100 in PBS. The cells were stained with ‘Cell Painting’ […]
(§6) assay reagents1: Hoechst 33342 (10 mg/mL stock, Molecular Probes, 1:5000), SYTO14 […]
(§7) BSA/PBS. The plates were imaged using an ImageXpress high content microscope (Molecular Devices). Cells were imaged with a 20× objective, covering 6 fields-of-view in each well. The data was then analyzed using a custom CellProfiler software pipeline using the University of Edinburgh high performance computing cluster. Dose response plots were calculated using HC StratomineR (corelifeanalytics.com). Nuclei count data was analyzed separately to generate cell survival metrics (normalized to aqueous glycerol/TX -100 control). […]

GCGR-E28 = assay type: cell-based, human; conditions: 72 h
Protocol: as §2, §3, §4, §5, §6, §7

GCGR-NS9FB_B = assay type: cell-based, human; conditions: 72 h
Protocol: as §2, §3, §4, §5, §6, §7

GCGR-E57 = assay type: cell-based, human; conditions: 72 h
Protocol: as §2, §3, §4, §5, §6, §7

GCGR-E21 = assay type: cell-based, human; conditions: 72 h
Protocol: as §2, §3, §4
(§8) Cell lines (glioma stem cell lines and normal foetal neural stem cells) were seeded on laminin (10 µg/mL) coated 384-well plates (Greiner Bio-One, 781091) at 1,000 cells/well and incubated overnight at 37 °C and 5% CO2. Aqueous peptide solutions (10 mM) were further diluted to 1 mM in water containing 10 % glycerol and 0.01 % TX-100. […]
(§9) The cells were placed in an IncuCyte live cell imager (Essen BioScience) and imaged every three hours for 72 hours. Prior to fixation, the plates were removed from the IncuCyte and stained with Mitrotracker DeepRed (Invitrogen, M22426, 300 nM, 30 minutes). Cells were then fixed using 4 % formaldehyde and permeabilized with 0.1 % TX-100 in PBS. The cells were stained with ‘Cell Painting’ […]
as §6, §7

GCGR-E34 = assay type: cell-based, human; conditions: 72 h
Protocol: as §2, §3, §4, §8, §9, §6, §7

GCGR-E13 = assay type: cell-based, human; conditions: 72 h
Protocol: as §2, §3, §4, §8, §9, §6, §7

GSK-3 = experiment: Reverse phase protein array (RPPA); assay type: cell-based, human; conditions: peptides at 3 μM, 3 h and 24 h (peptide 7: 24 h only), seven cell lines; fold difference vs water control
Text: The phenotypic effect of the peptides was visualized by live cell imaging (Figure 1C, IncuCyte live cell imager) and also quantified via image analysis of cells labeled with the cell painting reagents (see Supporting Information) followed by image analysis using Cell Profiler (cellprofiler.org). Multiparametric outputs from Cell Profiler were processed using Phenonaut[46] [v 2.0.3] (see Jupyter notebook ‘Phenonaut_processing_of_nullomer_data.ipynb’ in the Aminonaut repository for methods and code used). […] Peptides 2, 5, and 7 were deemed to have the most merit for mode of action determination using reverse phase protein arrays (RPPAs) (see Supporting Information for methods). […]
growth and stemness was further supported by the addition of laminin extracellular matrix (Cultrex 3446-005-01, 4-10 mg/mL) to the growth media and to create pre-coated flasks/384w plates. Cells were cultured in T75 cm2 flasks and passaged as follows: Glioma stem cells generally grow slowly (~60hrs doubling time, excepting GCGR-E57 cells ~24hrs) and lag phase was exacerbated by sparse seeding. Cell confluence is generally ~80 -90% prior to passaging, whereby the culture media was aspirated, the cells washed (PBS) and Accutase solution (Sigma A6964, 1 mL) was added to detach the cells, which were then incubated at 37 °C for <5 minutes. Cells were resuspended in media and centrifuged for 3 minutes at 300 × g. Resuspended cells were typically split 1:5, 1:8 (GCGR-E57 cells) and 1:2, 1:4 for the remainder of cell lines, depending on requirements . Cells were passaged every 4-7 days to maintain health and growth and discarded after 3 months, whereupon a fresh batch of cells […]
Reverse Phase Protein Array (RPPA)
Culture media was aspirated and cells washed with wash media. Accutase solution (1mL) was used to detach the cells which were then incubated at 37 °C for 5 minutes. 10 mL of wash media was added, and the cells were pipetted into a 15 mL conical tube, after which they were centrifuged for 3 minutes at 300× g to form a pellet. Supernatant was aspirated, and cells resuspended in 5 mL of wash media. A 10 μL sample of the cell suspension was pipetted onto the reading surface of a DeNovix CellDrop automated cell counter and the reading was used to dilute the suspension in complete media to 250,000 cells/mL. 2 mL of this suspension was added to each well of 6-well plates to seed plates at 500,000 cells per well. 2 plates of each cell type (GCGR-E13, GCGR-E21, GCGR-E28, GCGR-E31, GCGR-E34, GCGR-E57 and GCGR-NS9FB_B) were seeded, one each for two nullomer dosage […]
timepoints (3 h and 24 h). The cells were incubated in the 6-well plates overnight, and dosing was carried out in the following morning. […]

Compound	IC50 (GCGR-E31) [µM]	IC50 (GCGR-E28) [µM]	IC50 (GCGR-E57) [µM]	IC50 (GCGR-E21) [µM]	IC50 (GCGR-E34) [µM]	IC50 (GCGR-E13) [µM]	gene expression by transcriptomics in triple-negative breast cancer mouse model [1]	lethal effect on NCI-60 panel (NCI-60 panel)	mitochondrial impairment [2]	IC50 (GCGR-NS9FB_B) [µM]	GSK-3 regulation in RPPA (GSK-3)
WCMNW [permutation of pentamer nullomer NWMWC, Alileche et al]	–	–	–	–	–	–	downregulation of key genes involved in the mitochondrial TCA cycle	lethal to a high fraction of oncogenic cell lines	caused mitochondrial impairment in both normal cell lines and cancer cell lines	–	–
N=C(N)NCCC[C@H](NC(=O)[C@H](CCCNC(=N)N)NC(=O)[C@H](CCCNC(=N)N)NC(=O)[C@@H](N)CCCNC(=N)N)C(=O)N[C@@H](CCCNC(=N)N)C(=O)N[C@H](CS)C(=O)N[C@H](CCC(N)=O)C(=O)N[C@H](Cc1c[nH]c2ccccc12)C(=O)N[C@H](Cc1c[nH]c2ccccc12)C(N)=O [Peptide 3] (H-RRRRR[dC][dQ][dW][dW]-NH2)	8.7	8.4	5.4	7.5	5.3	6.9	–	–	–	9.7	downregulation of GSK-3
RRRRRCAWW-NH2 [Peptide 7]	12.1	9.7	6.3	11.2	6	10.6	–	–	–	11.9	downregulation of GSK-3β
RRRRRWWQC-NH2 [Peptide 4]	11.8	10.9	9	12.8	8.6	13.1	–	–	–	13.8	–
RRRRRCQWA-NH2 [Peptide 9]	> 30	> 30	> 30	> 30	15.8	> 30	–	–	–	> 30	–
N=C(N)NCCC[C@H](NC(=O)[C@H](CCCNC(=N)N)NC(=O)[C@H](CCCNC(=N)N)NC(=O)[C@@H](N)CCCNC(=N)N)C(=O)N[C@@H](CCCNC(=N)N)C(=O)N[C@H](Cc1c[nH]c2ccccc12)C(=O)N[C@H](Cc1c[nH]c2ccccc12)C(=O)N[C@H](CCC(N)=O)C(=O)N[C@H](CS)C(N)=O [Peptide 5] (H-RRRRR[dW][dW][dQ][dC]-NH2)	15.7	13.2	9.9	16.3	17.6	13.6	–	–	–	15.9	downregulation of GSK-3β
NWMWC [pentamer peptide nullomer of Alileche et al]	–	–	–	–	–	–	–	lethal to a high fraction of oncogenic cell lines	caused mitochondrial impairment in both normal cell lines and cancer cell lines	–	–
RRRRRCQAW-NH2 [Peptide 8]	238	100	100	75	100	100	–	–	–	100	–
RRRRRAQWW-NH2 [Peptide 6]	–	86	–	279	–	151	–	–	–	–	–

Continued, in another order:

IC50 (GCGR-E31) [µM]	IC50 (GCGR-E28) [µM]	IC50 (GCGR-E57) [µM]	IC50 (GCGR-E21) [µM]	IC50 (GCGR-E34) [µM]	IC50 (GCGR-E13) [µM]	Compound	gene expression by transcriptomics in triple-negative breast cancer mouse model [1]	lethal effect on NCI-60 panel (NCI-60 panel)	mitochondrial impairment [2]	IC50 (GCGR-NS9FB_B) [µM]	GSK-3 regulation in RPPA (GSK-3)
101	29.6	55.7	81.3	> 100	52	RRRRRFQWW-NH2 [Peptide 13]	–	–	–	–	–
–	–	–	–	15.8	–	RRRRR-NH2 [Peptide 15, reference compound]	–	–	–	–	–
123	58	119	132	> 100	52	RRRRRHQWW-NH2 [Peptide 14]	–	–	–	–	–
> 100	168	108	> 100	154	> 100	RRRRRCQW-NH2 [Peptide 10]	–	–	–	–	–
74.3	72.6	99.5	158	114	110	RRRRRQWW-NH2 [Peptide 11]	–	–	–	–	–
59.7	100	> 100	122	> 100	117	RRRRRMQWW-NH2 [Peptide 12]	–	–	–	–	–
